As a reminder, the pIC50 is the IC50 on a negative log10 scale, so that one unit is a factor of ten. Low values mean a high IC50, high ones a low IC50. As a reminder, the inhibition is the percentage by which the read-out fell short of the control. A low value points to a response near the control.

pIC50: −log10 of the molar value.

The record followed here is patent publication US7795279B2, “Method of inhibiting FLT3 kinase” (Janssen Pharmaceutica NV, priority 2005, dated 2010).

One series concerns MV4-11 cells. In words: Inhibition of MV4-11 cell proliferation (CellTiterGlo). In kind it is cell-based. The note with it: Homo sapiens, 72 hours growth, uncertainty ±20%. As to the method: To assess the cellular potency of compounds of the present invention, FLT3 specific growth inhibition was measured in the leukemic cell line MV4-11 (ATCC Number: CRL-9591). MV4-11 cells are derived from a patient with childhood acute myelomonocytic leukemia with an 11q23 translocation resulting in a MLL gene rearrangement and containing an FLT3-ITD mutation (AML subtype M4)(1,2). MV4-11 cells cannot grow and survive without active FLT3ITD.
To measure proliferation inhibition by compounds of the present invention, the luciferase based CellTiterGlo reagent (Promega), which quantifies total cell number based on total cellular ATP concentration, was used. Cells are plated at 10,000 cells per well in 100 ul of in RPMI media containing penn/strep, 10% FBS and 1 ng/ml GM-CSF or 1 ng/ml IL-3 for MV4-11 and Baf3 cells respectively.
Compound dilutions or 0.1% DMSO (vehicle control) are added to cells and the cells are allowed to grow for 72 hours at standard cell growth conditions (37° C., 5% CO2). For activity measurements in MV4-11 cells grown in 50% plasma, cells were plated at 10,000 cells per well in a 1:1 mixture of growth media and human plasma (final volume of 100 μL). To measure total cell growth an equal volume of CellTiterGlo reagent was added to each well, according to the manufacturer's instructions, and luminescence was quantified. Total cell growth was quantified as the difference in luminescent counts (relative light units, RLU) of cell number at Day 0 compared to total cell number at Day 3 (72 hours of growth and/or compound treatment). One hundred percent inhibition of growth is defined as an RLU equivalent to the Day 0 reading. Zero percent inhibition was defined as the RLU signal for the DMSO vehicle control at Day 3 of growth.
Data points are an average of triplicate samples. […] Inhibition and IC50 data analysis was done with GraphPad Prism using a non-linear regression fit with a multiparamater, sigmoidal dose-response (variable slope) equation.

In another series the test system is Baf3 cells. In words: Baf3 cell proliferation (non-specific toxicity control). In kind it is cell-based, murine. The note with it: Mus musculus, IL-3 driven. An excerpt: The IL-3 dependent, murine b-cell lymphoma cell line, Baf3, were used as a control to confirm the selectivity of compound inhibition of proliferation for representatives of the present invention by measuring non-specific growth inhibition by the compounds of the present invention (data not shown). To measure proliferation inhibition by compounds of the present invention, the luciferase based CellTiterGlo reagent (Promega), which quantifies total cell number based on total cellular ATP concentration, was used. […] Compound dilutions or 0.1% DMSO (vehicle control) are added to cells and the cells are allowed to grow for 72 hours at standard cell growth conditions (37° C., 5% CO2). […] To measure total cell growth an equal volume of CellTiterGlo reagent was added to each well, according to the manufacturer's instructions, and luminescence was quantified. Total cell growth was quantified as the difference in luminescent counts (relative light units, RLU) of cell number at Day 0 compared to total cell number at Day 3 (72 hours of growth and/or compound treatment). One hundred percent inhibition of growth is defined as an RLU equivalent to the Day 0 reading. Zero percent inhibition was defined as the RLU signal for the DMSO vehicle control at Day 3 of growth. MV4-11 cells express the FLT3 internal tandem duplication mutation, and thus are entirely dependent upon FLT3 activity for growth. […]

Another series has as its system MV4-11 tumor xenografts. As to the kind of experiment: Nude mouse MV4-11 human tumor xenograft regression model. The format is in vivo. To be noted: for final tumor weight: study termination. Here is the method:
Female athymic nude mice (CD-1, nu/nu, 9-10 weeks old) were obtained from Charles River Laboratories (Wilmington, Mass.) and were maintained according to NIH standards. All mice were group housed (5 mice/cage) under clean-room conditions in sterile micro-isolator cages on a 12-hour light/dark cycle in a room maintained at 21-22° C. and 40-50% humidity. Mice were fed irradiated standard rodent diet and water ad libitum. All animals were housed in a Laboratory Animal Medicine facility that is fully accredited by the American Association for Assessment and Accreditation of Laboratory Animal Care (AAALAC). All procedures involving animals were conducted in compliance with the NIH Guide for the Care and Use of Laboratory Animals and all protocols were approved by an […] Animal Care and Use Committee (IACUC). The human leukemic MV4-11 cell line was obtained from the American Type Culture Collection (ATCC Number: CRL-9591) and propagated in RPMI medium containing 10% FBS (fetal bovine serum) and 5 ng/mL GM-CSF (R&D Systems). […] MV4-11 cells express constitutively active phosphorylated FLT3 receptor as a result of this naturally occurring FLT3/ITD mutation. Strong anti-tumor activity against MV4-11 tumor growth in the nude mouse tumor xenograft model is a desirable quality of the invention. […] Female athymic nude mice weighing no less than 20-21 grams were inoculated subcutaneously in the left inguinal region of the thigh with 5×10^6 tumor cells in a delivery volume of 0.2 mL. For regression studies, the tumors were allowed to grow to a pre-determined size prior to initiation of dosing.
On the technique in general: Xenograft models place foreign cells or tissue in a host animal.

The nature of series [1]: Body weight and overt toxicity in the MV4-11 xenograft study. To be noted: 11-day oral treatment, doses up to 200 mg/kg/day. As to the method:
If tumors in the control mice reached ˜10% of body weight (˜2.0 grams), the study was to be terminated. […] During the study, tumor growth was measured three times-a-week (M, W, F) using electronic Vernier calipers. Tumor volume (mm^3) was calculated using the formula […], where L=length (mm) and W=width (shortest distance in mm) of the tumor. Body weight was measured three times-a-week and a loss of body weight >10% was used as an indication of lack of compound tolerability. Unacceptable toxicity was defined as body weight loss >20% during the study. Mice were closely examined daily at each dose for overt clinical signs of adverse, drug-related side effects.
Mice were weighed three times each week (M, W, F) during the study and were examined daily at the time of dosing for overt clinical signs of any adverse, drug-related side effects.

Series [2] relates to FLT3 phosphorylation in MV4-11 tumors. In words: FLT3 phosphorylation in MV4-11 tumors (immunoprecipitation / western blot). To be noted: tumors harvested 6 hours later. In kind it is in vivo, mouse. Here is the method: Tumors were harvested 6 hours later and snap frozen for assessment of FLT3 phosphorylation by western blots.
Harvested tumors were frozen and processed for immunoblot analysis of FLT3 phosphorylation in the following manner: 200 mg of tumor tissue was dounce homogenized in lysis buffer (50 mM Hepes, 150 mM NaCl, 10% Glycerol, 1% Triton-X-100, 10 mM NaF, 1 mM EDTA, 1.5 mM MgCl2, 10 mM NaPyrophosphate) supplemented with phosphatase (Sigma Cat# P2850) and protease inhibitors (Sigma Cat #P8340). Insoluble debris was removed by centrifugation at 1000×g for 5 minutes at 4° C. […] Immunoprecipitated FLT3 from tumor lysates were then washed four times with lysis buffer and separated by SDS-PAGE. […] Blots were then stripped and reprobed with anti-FLT3 antibody for normalization of phosphorylation signals.
For orientation: In western blotting, separated proteins are transferred to a membrane and probed.

As to `CN(C)CC(=O)N1CCC(c2ccc(NC(=O)c3nc(C#N)c[nH]3)c(C3=CCCCC3)c2)CC1` [Example 38, 4-Cyano-1H-imidazole-2-carboxylic acid {2-cyclohex-1-enyl-4-[1-(2-dimethylamino-acetyl)-piperidin-4-yl]-phenyl}-amide], the pIC50 in the series on MV4-11 cells is 7.63. This compound also returned an inhibition at 3 µM in the series on Baf3 cells of less than 50%. Moreover, in the series with MV4-11 tumor xenografts (10 mg/kg b.i.d. oral, 11 days), the “tumor growth delay compared to vehicle-treated control group” value is recorded as “no significant growth delay”. Also, the values for the final tumor weight entry in the series on MV4-11 tumor xenografts (10 mg/kg b.i.d. oral) and in the series on MV4-11 tumor xenografts (50 mg/kg b.i.d. oral) were “no significant decrease in final tumor weight” and “no measurable tumor mass detectable”, respectively. The “effects on body weight” value in series [1] was “no significant adverse effects on body weight”. Also, the “level of FLT3 phosphorylation in MV4-11 tumors versus vehicle” value in series [2] (single dose 10 mg/kg po) is given as “partial reduction”; in series [2] (single dose 100 mg/kg po) it was “biologically significant reduction”.
